Source: US6352959B1, “Thiochromanoylpyrazolone derivatives” (BASF Aktiengesellschaft, priority 1998, dated 2002)

Key:
Avena fatua = assay: greenhouse herbicidal test; format: in vivo; settings: rate and mode not restated in the sentence
From the text: (§1) The seeds of the test plants were sown separately for each species. For the post-emergence treatment, the test plants were first grown to a plant height of from 3 to 15 cm, depending on the plant habit, and only then treated with the active ingredients which had been suspended or emulsified in water. For this purpose, the test plants were either sown directly and grown in the same containers, or they were first grown separately as seedlings and transplanted into the test containers a few days prior to treatment. The application rate for the post-emergence treatment was 0.25 or 0.125 kg of a.s. (active substance) per ha. Depending on the species, the plants were kept at from 10 to 25° C. or from 20 to 35° C. The test period extended over 2 to 4 weeks. During this time, the plants were tended and their response to the individual treatments was evaluated. Evaluation was carried out using a scale from 0 to 100. 100 means no emergence of the plants, or complete destruction of at least the above-ground parts, and 0 means no damage or normal course of growth. [table]

Polygonum persicaria = assay: greenhouse herbicidal test; format: in vivo; settings: rate and mode not restated in the sentence
From the text: as §1

Setaria viridis = assay: greenhouse herbicidal test; format: in vivo; settings: rate and mode not restated in the sentence
From the text: as §1

Sinapis alba = assay: greenhouse herbicidal test; format: in vivo; settings: rate and mode not restated in the sentence
From the text: as §1

Structure (SMILES): CCCOCc1c(C(=O)c2cnn(C)c2O)ccc2c1S(=O)(=O)CCC2(C)C [Compound 2.17, 4-{[4,4-Dimethyl-8-propoxymethyl-1,1-dioxothiochroman-7-yl]-carbonyl}-5-hydroxy-1-methylpyrazole]
- activity against the weed (Avena fatua): very good activity
- activity against the weed (Polygonum persicaria): very good activity
- activity against the weed (Setaria viridis): very good activity
- activity against the weed (Sinapis alba): very good activity
- melting point: 84 °C
